Source: patent US6906205B2, “Spiro and dispiro 1,2,4-trioxolane antimalarials” (Medicines for Malaria Venture MMV, priority 2002, dated 2005)
≈ marks a conversion by molar mass, not a printed value.

test system: P. falciparum K1 strain (Thailand resistant to chloroquine); assay: semiautomated microdilution assay, [3H]-hypoxanthine incorporation, K1 strain; type: cell-based, Plasmodium falciparum; conditions: K1 strain, 72 h incubation
Method in brief: (§1)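 Compounds were tested against intraerythrocytic parasites taken from asynchronous stock cultures, using semiautomated microdilution. IC50 values were estimated by logit regression analysis.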

SMILES	IC50 (ng/ml) K1
CN1CCN(C(=O)C[C@H]2CC[C@]3(CC2)OOC2(O3)C3CC4CC(C3)CC2C4)CC1 (some centres unmarked) [OZ227]	0.20/0.20 ng/ml
c1cn(CC[C@H]2CC[C@]3(CC2)OOC2(O3)C3CC4CC(C3)CC2C4)cn1 (some centres unmarked) [OZ219]	0.85 ng/mL (≈ 2.37 nM)
COCC(=O)N1CCC2(CC1)OOC1(O2)C2CC3CC(C2)CC1C3 (centres unmarked) [OZ113]	0.95 ng/mL (≈ 2.82 nM)
c1cn(C[C@H]2CC[C@]3(CC2)OOC2(O3)C3CC4CC(C3)CC2C4)cn1 (some centres unmarked) [OZ179]	1.3 ng/mL (≈ 3.77 nM)
c1ncn(C[C@H]2CC[C@]3(CC2)OOC2(O3)C3CC4CC(C3)CC2C4)n1 (some centres unmarked) [OZ235]	1.0 ng/mL (≈ 2.89 nM)
O=C(NO)[C@H]1CC[C@@]2(CC1)OOC1(O2)C2CC3CC(C2)CC1C3 (some centres unmarked) [OZ127]	0.61 ng/mL (≈ 1.89 nM)

same assay, conditions: Plasmodium falciparum; K1 strain, 72 h incubation; read-out: IC50 (ng/ml) K1

SMILES	IC50
c1ncn(C[C@H]2CC[C@]3(CC2)OOC2(O3)C3CC4CC(C3)CC2C4)n1 (some centres unmarked) [OZ177]	0.9 ng/mL (≈ 2.61 nM)

test system: P. falciparum NF54 strain (sensitive to standard antimalarials); assay: semiautomated microdilution assay, [3H]-hypoxanthine incorporation, NF54 strain; type: cell-based, Plasmodium falciparum; conditions: NF54 strain, 72 h incubation
Method in brief: as §1

SMILES	IC50 (ng/ml) NF54
CN1CCN(C(=O)C[C@H]2CC[C@]3(CC2)OOC2(O3)C3CC4CC(C3)CC2C4)CC1 (some centres unmarked) [OZ227]	0.20/0.20 ng/ml
c1cn(CC[C@H]2CC[C@]3(CC2)OOC2(O3)C3CC4CC(C3)CC2C4)cn1 (some centres unmarked) [OZ219]	1.6 ng/mL (≈ 4.46 nM)
COCC(=O)N1CCC2(CC1)OOC1(O2)C2CC3CC(C2)CC1C3 (centres unmarked) [OZ113]	0.20 ng/mL (≈ 0.593 nM)
c1cn(C[C@H]2CC[C@]3(CC2)OOC2(O3)C3CC4CC(C3)CC2C4)cn1 (some centres unmarked) [OZ179]	1.1 ng/mL (≈ 3.19 nM)
c1ncn(C[C@H]2CC[C@]3(CC2)OOC2(O3)C3CC4CC(C3)CC2C4)n1 (some centres unmarked) [OZ235]	2.0 ng/mL (≈ 5.79 nM)
O=C(NO)[C@H]1CC[C@@]2(CC1)OOC1(O2)C2CC3CC(C2)CC1C3 (some centres unmarked) [OZ127]	1.3 ng/mL (≈ 4.02 nM)

same assay, conditions: Plasmodium falciparum; NF54 strain, 72 h incubation; read-out: IC50 (ng/ml) NF54

SMILES	IC50
c1ncn(C[C@H]2CC[C@]3(CC2)OOC2(O3)C3CC4CC(C3)CC2C4)n1 (some centres unmarked) [OZ177]	1.7 ng/mL (≈ 4.92 nM)

test system: ANKA strain of P. berghei; assay: single dose STI in vivo screen in infected mice; parameters: species or system Plasmodium berghei; conditions: percent reduction in parasitemia day 3 post-infection; single 10 mg/kg po in 3% ethanol and 7% Tween 80; mice
Method in brief: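 Groups of 3-5 Moro SPF or NMRI mice infected with the ANKA strain of P. berghei received a single dose of trioxolane on day one post-infection. The compound was given in 3% ethanol and 7% Tween 80 or in SSV (0.5% w/v CMC, 0.5% v/v benzyl alcohol, 0.4% v/v Tween 80, 0.9% w/v sodium chloride in water). Antimalarial activity was scored as percent reduction in parasitemia on day three and as survival time versus untreated controls. Survival to day 30 counted as cure.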

SMILES	Activity (%) po
CN1CCN(C(=O)C[C@H]2CC[C@]3(CC2)OOC2(O3)C3CC4CC(C3)CC2C4)CC1 (some centres unmarked) [OZ227]	99.68%
c1cn(CC[C@H]2CC[C@]3(CC2)OOC2(O3)C3CC4CC(C3)CC2C4)cn1 (some centres unmarked) [OZ219]	99.89%
COCC(=O)N1CCC2(CC1)OOC1(O2)C2CC3CC(C2)CC1C3 (centres unmarked) [OZ113]	92%
c1ncn(C[C@H]2CC[C@]3(CC2)OOC2(O3)C3CC4CC(C3)CC2C4)n1 (some centres unmarked) [OZ235]	99.92%
O=C(NO)[C@H]1CC[C@@]2(CC1)OOC1(O2)C2CC3CC(C2)CC1C3 (some centres unmarked) [OZ127]	95%

same assay, conditions: percent reduction in parasitemia day 3 post-infection; single 10 mg/kg po in 3% ethanol and 7% Tween 80; mice; 10 mg/kg

SMILES	Activity (%) po
c1cn(C[C@H]2CC[C@]3(CC2)OOC2(O3)C3CC4CC(C3)CC2C4)cn1 (some centres unmarked) [OZ179]	99.91%

same assay, conditions: percent reduction in parasitemia day 3 post-infection; single 10 mg/kg sc in 3% ethanol and 7% Tween 80; mice

SMILES	Activity (%) sc
CN1CCN(C(=O)C[C@H]2CC[C@]3(CC2)OOC2(O3)C3CC4CC(C3)CC2C4)CC1 (some centres unmarked) [OZ227]	99.84%
c1cn(CC[C@H]2CC[C@]3(CC2)OOC2(O3)C3CC4CC(C3)CC2C4)cn1 (some centres unmarked) [OZ219]	99.91%
COCC(=O)N1CCC2(CC1)OOC1(O2)C2CC3CC(C2)CC1C3 (centres unmarked) [OZ113]	89%
c1ncn(C[C@H]2CC[C@]3(CC2)OOC2(O3)C3CC4CC(C3)CC2C4)n1 (some centres unmarked) [OZ235]	97%
O=C(NO)[C@H]1CC[C@@]2(CC1)OOC1(O2)C2CC3CC(C2)CC1C3 (some centres unmarked) [OZ127]	97%

same assay, conditions: percent reduction in parasitemia day 3 post-infection; single 10 mg/kg sc in 3% ethanol and 7% Tween 80; mice; 10 mg/kg

SMILES	Activity (%) sc
c1cn(C[C@H]2CC[C@]3(CC2)OOC2(O3)C3CC4CC(C3)CC2C4)cn1 (some centres unmarked) [OZ179]	99.91%

same assay, conditions: percent reduction in parasitemia day 3 post-infection; single po dose in standard suspending vehicle (SSV); mice

SMILES	Activity (%) SSVpo
CN1CCN(C(=O)C[C@H]2CC[C@]3(CC2)OOC2(O3)C3CC4CC(C3)CC2C4)CC1 (some centres unmarked) [OZ227]	99.90%
c1cn(CC[C@H]2CC[C@]3(CC2)OOC2(O3)C3CC4CC(C3)CC2C4)cn1 (some centres unmarked) [OZ219]	99.82%
COCC(=O)N1CCC2(CC1)OOC1(O2)C2CC3CC(C2)CC1C3 (centres unmarked) [OZ113]	96%
c1cn(C[C@H]2CC[C@]3(CC2)OOC2(O3)C3CC4CC(C3)CC2C4)cn1 (some centres unmarked) [OZ179]	99.78%
c1ncn(C[C@H]2CC[C@]3(CC2)OOC2(O3)C3CC4CC(C3)CC2C4)n1 (some centres unmarked) [OZ235]	99.97%
O=C(NO)[C@H]1CC[C@@]2(CC1)OOC1(O2)C2CC3CC(C2)CC1C3 (some centres unmarked) [OZ127]	98%

same assay, conditions: single 10 mg/kg po in 3% ethanol and 7% Tween 80; untreated control 5.6 ± 0.3

SMILES	Survival (days) po
CN1CCN(C(=O)C[C@H]2CC[C@]3(CC2)OOC2(O3)C3CC4CC(C3)CC2C4)CC1 (some centres unmarked) [OZ227]	8.3 days
c1cn(CC[C@H]2CC[C@]3(CC2)OOC2(O3)C3CC4CC(C3)CC2C4)cn1 (some centres unmarked) [OZ219]	8.7 days
COCC(=O)N1CCC2(CC1)OOC1(O2)C2CC3CC(C2)CC1C3 (centres unmarked) [OZ113]	7.3 days
c1ncn(C[C@H]2CC[C@]3(CC2)OOC2(O3)C3CC4CC(C3)CC2C4)n1 (some centres unmarked) [OZ235]	8.7 days
O=C(NO)[C@H]1CC[C@@]2(CC1)OOC1(O2)C2CC3CC(C2)CC1C3 (some centres unmarked) [OZ127]	7.0 days

same assay, conditions: single 10 mg/kg po in 3% ethanol and 7% Tween 80; untreated control 5.6 ± 0.3; 10 mg/kg

SMILES	Survival (days) po
c1cn(C[C@H]2CC[C@]3(CC2)OOC2(O3)C3CC4CC(C3)CC2C4)cn1 (some centres unmarked) [OZ179]	11.3 days

same assay, conditions: single 10 mg/kg sc in 3% ethanol and 7% Tween 80; untreated control 5.6 ± 0.3

SMILES	Survival (days) sc
CN1CCN(C(=O)C[C@H]2CC[C@]3(CC2)OOC2(O3)C3CC4CC(C3)CC2C4)CC1 (some centres unmarked) [OZ227]	10.7 days
c1cn(CC[C@H]2CC[C@]3(CC2)OOC2(O3)C3CC4CC(C3)CC2C4)cn1 (some centres unmarked) [OZ219]	9.3 days
COCC(=O)N1CCC2(CC1)OOC1(O2)C2CC3CC(C2)CC1C3 (centres unmarked) [OZ113]	7.3 days
c1ncn(C[C@H]2CC[C@]3(CC2)OOC2(O3)C3CC4CC(C3)CC2C4)n1 (some centres unmarked) [OZ235]	8.0 days
O=C(NO)[C@H]1CC[C@@]2(CC1)OOC1(O2)C2CC3CC(C2)CC1C3 (some centres unmarked) [OZ127]	7.7 days

same assay, conditions: single 10 mg/kg sc in 3% ethanol and 7% Tween 80; untreated control 5.6 ± 0.3; 10 mg/kg

SMILES	Survival (days) sc
c1cn(C[C@H]2CC[C@]3(CC2)OOC2(O3)C3CC4CC(C3)CC2C4)cn1 (some centres unmarked) [OZ179]	11.3 days

same assay, conditions: single po dose in SSV; untreated control 5.6 ± 0.3

SMILES	Survival (days) SSVpo
CN1CCN(C(=O)C[C@H]2CC[C@]3(CC2)OOC2(O3)C3CC4CC(C3)CC2C4)CC1 (some centres unmarked) [OZ227]	9.3 days
c1cn(CC[C@H]2CC[C@]3(CC2)OOC2(O3)C3CC4CC(C3)CC2C4)cn1 (some centres unmarked) [OZ219]	8.0 days
COCC(=O)N1CCC2(CC1)OOC1(O2)C2CC3CC(C2)CC1C3 (centres unmarked) [OZ113]	8.0 days
c1cn(C[C@H]2CC[C@]3(CC2)OOC2(O3)C3CC4CC(C3)CC2C4)cn1 (some centres unmarked) [OZ179]	10.3 days
c1ncn(C[C@H]2CC[C@]3(CC2)OOC2(O3)C3CC4CC(C3)CC2C4)n1 (some centres unmarked) [OZ235]	9.0 days
c1ncn(C[C@H]2CC[C@]3(CC2)OOC2(O3)C3CC4CC(C3)CC2C4)n1 (some centres unmarked) [OZ177]	12.7 days
O=C(NO)[C@H]1CC[C@@]2(CC1)OOC1(O2)C2CC3CC(C2)CC1C3 (some centres unmarked) [OZ127]	7.7 days

test system: ANKA strain of Plasmodium berghei; assay: single dose ED50/ED90/ED99 determinations in infected mice; type: in vivo; conditions: single dose po in SSV, mice, percent reduction in parasitemia on day three post-infection
Experimental: In the single dose ED50/ED90/ED99 determinations, Moro SPF or NMRI mice (group of three) infected with the ANKA strain of Plasmodium berghei were treated on day one post-infection. […] The SSV consists of 0.5% w/v CMC, 0.5% v/v benzyl alcohol, 0.4% v/v Tween 80, and 0.9% w/v sodium chloride in water. Antimalarial activity was measured by percent reduction in parasitemia on day three post-infection. The ED50/ED90 values were calculated by nonlinear fitting.

SMILES	ED50	ED90	ED99
CN1CCN(C(=O)C[C@H]2CC[C@]3(CC2)OOC2(O3)C3CC4CC(C3)CC2C4)CC1 (some centres unmarked) [OZ227]	2.3 mg/kg	4.0 mg/kg	6.2 mg/kg
c1cn(CC[C@H]2CC[C@]3(CC2)OOC2(O3)C3CC4CC(C3)CC2C4)cn1 (some centres unmarked) [OZ219]	1.6 mg/kg	3.0 mg/kg	5.2 mg/kg
COCC(=O)N1CCC2(CC1)OOC1(O2)C2CC3CC(C2)CC1C3 (centres unmarked) [OZ113]	3.6 mg/kg	9.0 mg/kg	19 mg/kg
c1cn(C[C@H]2CC[C@]3(CC2)OOC2(O3)C3CC4CC(C3)CC2C4)cn1 (some centres unmarked) [OZ179]	1.4 mg/kg	3.3 mg/kg	6.6 mg/kg
c1ncn(C[C@H]2CC[C@]3(CC2)OOC2(O3)C3CC4CC(C3)CC2C4)n1 (some centres unmarked) [OZ235]	4.0 mg/kg	7.1 mg/kg	11 mg/kg
c1ncn(C[C@H]2CC[C@]3(CC2)OOC2(O3)C3CC4CC(C3)CC2C4)n1 (some centres unmarked) [OZ177]		3.7 mg/kg	5.8 mg/kg
O=C(NO)[C@H]1CC[C@@]2(CC1)OOC1(O2)C2CC3CC(C2)CC1C3 (some centres unmarked) [OZ127]	2.5 mg/kg	7.6 mg/kg	19 mg/kg
